Laboratory results from patent US20100330029A1, “Cancer Treatments with Radiation and Immunocytokines” (Merck Patent GmbH, priority 2008, published 2010).

What was measured:
CT26/KSA colon carcinoma = experiment: tumor growth assay, CT26/KSA model; assay type: in vivo, mice; settings: Experiments CT26-1-3; 3 or 4 Gy day 0 followed by EMD521873 5 mg/kg i.v. days 2, 3, 4
Source text: CT26 cells, a murine colon epithelial cell line derived by intrarectal injection of N-nitroso-N-methylurethane in BALB/C mice, were transfected to express the human KS antigen (KSA or EpCAM) that was cloned by PCR and expressed in parental cells using a retroviral vector (Gillies 1998). CT26/KSA cells were maintained in DMEM, supplemented with 10% heat inactivated fetal bovine serum, L-glutamine, vitamins, sodium pyruvate, non-essential amino acids, penicillin/streptomycin and Geneticin® (G418) (Life Technologies, Inc.) at 37° C. and 7% CO2. G418 was added to maintain KSA expression. CT26 and CT26/KSA cells were implanted in female BALB/C mice.
For the tumor growth assay, cells growing exponentially in culture were injected as a single cell suspension in 100 μl of PBS intramuscularly into the upper legs of the mice. […] Thereafter, animal survival was monitored. […] Mice were treated on days 0 to 6 and day 17, and tumor size was measured twice weekly for the duration of the study.
Tumors were measured with calipers in three dimensions for the duration of the experiment. Tumor volumes were calculated using the equation: […]
The effect of a single dose of radiation given on day 0 followed by i.v. dosing of the immunocytokine (5 mg/kg) was evaluated in three subcutaneous syngeneic tumor models (CT26 colon carcinoma, CT26/KSA colon carcinoma which expresses human EpCAM, and B16 melanoma). […]

CT26-specific T-cells = experiment: ELISPOT assay for IFNγ induction in splenocytes, CT26/KSA model; assay type: in vivo, mice; settings: radiation followed by EMD521873, compared to either therapy alone
Procedure: Enzyme-linked immunospot C (ELISPOT) assays for IFNγ induction in splenocytes were conducted by first coating ELISPOT plates with an anti-IFNγ antibody (murine IFNγ kit, BD Biosciences). Splenocytes from treated mice were added to the plates and incubated with an AH1:A5 peptide to stimulate IFNγ release from CT26-specific T-cells. Biotinylated IFNγ detection Ab and streptavidin-HRP were added to the plates. Resultant spots from individual IFNγ-producing lymphocytes were counted using a Zeiss® KS-ELISPOT plate reader.

[1] = system: CD8 effector cells in the blood; experiment: FACS analysis of blood, LLC dual tumor model; assay type: in vivo, mice; settings: Experiment LLC-6; combination compared to either chemoradiation or EMD521873 alone
Procedure: Immune effector cell populations in blood were analyzed by FACS. Blood was collected from the retro-orbital sinus of each mouse. Red blood cells were eliminated using lysis buffer. After blocking with rat IgG (1:50), samples were incubated with a 7-color cocktail of antibodies against CD4, CD8, CD25, CD44, CD62L, CD11b, and DX5. Samples were run on a FacsARIA and analyzed for various cell subpopulations.
In another experiment, LLC tumors were established subcutaneously in both the leg and flank of the same animal. Animals were then treated with either cisplatin (4 mg/kg, d0) plus fractionated radiation given to the leg tumor (3.6 Gy/d, d0-4), i.v. EMD521873 alone (5 mg/kg, d7, 8, 9), or the combination of EMD521873 plus chemoradiation (Experiment LLC-6). Tumor growth and immune response in both the irradiated leg tumor and the non-irradiated flank tumor were monitored. […] CD8 effector cells were increased by approximately 4-fold in the blood with the combination compared to either chemoradiation or EMD521873 alone.

malignant melanoma = experiment: study in cutaneous/subcutaneous malignant melanoma; assay type: in vivo; settings: human melanoma; EMD521873 0.3 mg/kg and local radiation vs EMD521873 only
Procedure: A study is performed to investigate the responses of cutaneous metastases in patients with stage IIIb-IV cutaneous/subcutaneous malignant melanoma to EMD521873 at the tumor site and in blood to EMD521873 in combination with local irradiation (25 Gy). The first treatment cycle with EMD521873 starts on day 1. Subsequent cycles are administered at 3-week intervals. Prior to the first dose of EMD521873, subjects are treated with two courses of local radiation (25 Gy) administered in fractions of 5 Gy on 5 consecutive days ([…]; and days −7 to −3) to different metastases.
For each patient, at least two cutaneous or subcutaneous lesions eligible for biopsy are selected for potential radiation (lesion A1 and lesion A2) and, if present, a third lesion (lesion A3) is also selected. A biopsy of a cutaneous/subcutaneous lesion (lesion A1) and blood sampling are performed at baseline (D-28). After 7 days, allowing for the necessary healing of the biopsy area, lesion A1 is irradiated (5×5 Gy) over 5 consecutive days starting on day −21 (D−21 to D−17). On day −7 (D−7) blood samples are withdrawn and a biopsy of the irradiated lesion A1 is taken. This tumor sample serves as an intraindividual control to assess the effect of radiation alone. On day −14, the pre-selected lesions A2 and A3 are also biopsied and blood drawn. […]

dI-NHS76γ2(h)(FN>AQ)-ala-IL2(D20T) [EMD521873]
anti-tumor effect (complete regressions) (CT26/KSA colon carcinoma): a majority of the animals achieved complete regressions
increase in T cell response (ELISPOT, endogenous CT26 antigen) (CT26-specific T-cells): > 4 fold
CD8 effector cells increased in the blood [1]: approximately 4 fold
tumor progression (PET or CT scan) (malignant melanoma): reduced tumor progression
